Measured values as given in PMC4503722, “Novel Phenotypic Outcomes Identified for a Public Collection of Approved Drugs from a Publicly Accessible Panel of Assays” (PLoS ONE, 2015).

How the values were obtained:
[1] = test system: DLD-1; assay: cells; assay type: cell-based; conditions: Homo sapiens, DLD-1, read-out: Basal_Viability ATP DLD-1
[2] = test system: HeLa cells; assay: cells; assay type: cell-based; conditions: Homo sapiens, HeLa, read-out: CellCycle G2/M
[3] = test system: RKO; assay: cells; assay type: cell-based; conditions: Homo sapiens, RKO, read-out: Basal_Viability ATP RKO
[4] = test system: nuclear β-catenin in C2C12 cells; assay: cells; assay type: cell-based; conditions: Mus musculus, C2C12, read-out: Wnt Pathway
[5] = test system: NCI-H716 cells; assay: cells; assay type: cell-based, Human; conditions: Homo sapiens, NCI-H716, read-out: GLP 1 Secretion
[6] = test system: endothelial tube formation in co-cultures of ECFCs and ADSCs treated with VEGF; assay: cells; assay type: cell-based, human; conditions: Homo sapiens, read-out: Anti-Angiogenesis
[7] = test system: HT-29; assay: cells; assay type: cell-based; conditions: Homo sapiens, HT-29, read-out: Basal_Viability ATP HT-29
[8] = test system: SNU-C1; assay: cells; assay type: cell-based; conditions: Homo sapiens, SNU-C1, read-out: Basal_Viability ATP SNU-C1
[9] = test system: Colo320; assay: cells; assay type: cell-based; conditions: Homo sapiens, COLO 320, read-out: Basal_Viability ATP Colo 320
[10] = molecular target: T1, hFLT3 (Homo sapiens, UniProt P36888); assay: Cerep LANCE kinase assay hFLT3 (S1 assay 35); assay type: biochemical; conditions: kinase assay; read-out: FLT3
T1 construct: purchased Cerep (LANCE kinase assay platform, contract assay)

[11] = molecular target: T2, hGSK3b (Homo sapiens, UniProt P49841); assay: Cerep LANCE kinase assay hGSK3b (S1 assay 34); assay type: biochemical; conditions: kinase assay; read-out: GSK3b
T2 construct: purchased Cerep (LANCE kinase assay platform, contract assay)

[12] = molecular target: T3, hJAK2 (Homo sapiens, UniProt O60674); assay: Cerep LANCE kinase assay hJAK2 (S1 assay 33); assay type: biochemical; conditions: kinase assay; read-out: JAK2
T3 construct: purchased Cerep (LANCE kinase assay platform, contract assay)

[13] = test system: SW480; assay: cells; assay type: cell-based; conditions: Homo sapiens, SW480, read-out: Basal_Viability ATP SW480
[14] = test system: HCT116 cells treated with a GSK3β inhibitor; assay: cells; assay type: cell-based; conditions: Homo sapiens, HCT-116, read-out: GSK3b inh pretreated_Viability ATP HCT116
[15] = molecular target: T4, hp70S6K1 (RPS6KB1) (Homo sapiens, UniProt P23443); assay: Cerep LANCE kinase assay hp70S6K1 (S1 assay 31); assay type: biochemical; conditions: kinase assay; read-out: p70S6K1
T4 construct: purchased Cerep (LANCE kinase assay platform, contract assay)

[16] = test system: HCT116; assay: cells; assay type: cell-based; conditions: Homo sapiens, HCT-116, read-out: Basal_Viability ATP HCT116
[17] = test system: INS-1E cells; assay: cells; assay type: cell-based, rat; conditions: Rattus norvegicus, INS-1E, read-out: Insulin Secretion
[18] = molecular target: T5, hKDR (Homo sapiens, UniProt P35968); assay: Cerep LANCE kinase assay hKDR (S1 assay 32); assay type: biochemical; conditions: kinase assay; read-out: KDR
T5 construct: purchased Cerep (LANCE kinase assay platform, contract assay)
T5 sequence (P35968 20-1356): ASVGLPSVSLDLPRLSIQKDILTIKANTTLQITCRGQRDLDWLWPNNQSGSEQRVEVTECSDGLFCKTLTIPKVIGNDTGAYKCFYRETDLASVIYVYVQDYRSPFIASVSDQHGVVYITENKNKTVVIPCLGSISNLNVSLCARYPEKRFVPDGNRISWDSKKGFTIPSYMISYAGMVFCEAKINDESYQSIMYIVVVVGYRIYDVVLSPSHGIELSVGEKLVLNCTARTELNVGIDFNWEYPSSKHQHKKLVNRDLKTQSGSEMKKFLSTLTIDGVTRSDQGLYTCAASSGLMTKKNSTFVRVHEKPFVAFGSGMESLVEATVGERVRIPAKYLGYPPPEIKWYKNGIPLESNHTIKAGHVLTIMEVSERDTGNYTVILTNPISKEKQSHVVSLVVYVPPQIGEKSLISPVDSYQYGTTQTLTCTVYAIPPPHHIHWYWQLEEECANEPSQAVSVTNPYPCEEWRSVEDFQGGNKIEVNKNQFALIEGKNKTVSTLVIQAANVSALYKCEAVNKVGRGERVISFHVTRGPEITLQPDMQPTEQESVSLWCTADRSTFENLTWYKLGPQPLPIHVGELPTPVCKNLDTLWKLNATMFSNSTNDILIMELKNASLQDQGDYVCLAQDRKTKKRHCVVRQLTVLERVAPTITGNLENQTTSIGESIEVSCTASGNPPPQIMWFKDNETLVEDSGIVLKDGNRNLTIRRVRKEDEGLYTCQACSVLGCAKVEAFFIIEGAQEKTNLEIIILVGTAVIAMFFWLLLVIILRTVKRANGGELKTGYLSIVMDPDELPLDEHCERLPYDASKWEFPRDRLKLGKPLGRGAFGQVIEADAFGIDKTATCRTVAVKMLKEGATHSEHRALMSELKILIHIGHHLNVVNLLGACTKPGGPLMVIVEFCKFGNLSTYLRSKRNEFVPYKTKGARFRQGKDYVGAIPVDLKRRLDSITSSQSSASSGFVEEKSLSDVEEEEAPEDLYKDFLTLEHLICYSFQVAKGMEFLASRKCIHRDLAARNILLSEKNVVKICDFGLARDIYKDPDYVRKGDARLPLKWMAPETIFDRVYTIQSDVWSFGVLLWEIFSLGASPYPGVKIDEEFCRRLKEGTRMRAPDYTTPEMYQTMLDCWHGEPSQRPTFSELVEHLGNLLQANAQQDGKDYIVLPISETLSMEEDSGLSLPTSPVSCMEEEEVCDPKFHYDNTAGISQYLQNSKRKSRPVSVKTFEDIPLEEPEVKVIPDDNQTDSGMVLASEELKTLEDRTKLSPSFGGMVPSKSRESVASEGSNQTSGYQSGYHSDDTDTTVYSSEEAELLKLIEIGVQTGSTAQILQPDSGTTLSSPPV

T1 sequence (P36888 27-993): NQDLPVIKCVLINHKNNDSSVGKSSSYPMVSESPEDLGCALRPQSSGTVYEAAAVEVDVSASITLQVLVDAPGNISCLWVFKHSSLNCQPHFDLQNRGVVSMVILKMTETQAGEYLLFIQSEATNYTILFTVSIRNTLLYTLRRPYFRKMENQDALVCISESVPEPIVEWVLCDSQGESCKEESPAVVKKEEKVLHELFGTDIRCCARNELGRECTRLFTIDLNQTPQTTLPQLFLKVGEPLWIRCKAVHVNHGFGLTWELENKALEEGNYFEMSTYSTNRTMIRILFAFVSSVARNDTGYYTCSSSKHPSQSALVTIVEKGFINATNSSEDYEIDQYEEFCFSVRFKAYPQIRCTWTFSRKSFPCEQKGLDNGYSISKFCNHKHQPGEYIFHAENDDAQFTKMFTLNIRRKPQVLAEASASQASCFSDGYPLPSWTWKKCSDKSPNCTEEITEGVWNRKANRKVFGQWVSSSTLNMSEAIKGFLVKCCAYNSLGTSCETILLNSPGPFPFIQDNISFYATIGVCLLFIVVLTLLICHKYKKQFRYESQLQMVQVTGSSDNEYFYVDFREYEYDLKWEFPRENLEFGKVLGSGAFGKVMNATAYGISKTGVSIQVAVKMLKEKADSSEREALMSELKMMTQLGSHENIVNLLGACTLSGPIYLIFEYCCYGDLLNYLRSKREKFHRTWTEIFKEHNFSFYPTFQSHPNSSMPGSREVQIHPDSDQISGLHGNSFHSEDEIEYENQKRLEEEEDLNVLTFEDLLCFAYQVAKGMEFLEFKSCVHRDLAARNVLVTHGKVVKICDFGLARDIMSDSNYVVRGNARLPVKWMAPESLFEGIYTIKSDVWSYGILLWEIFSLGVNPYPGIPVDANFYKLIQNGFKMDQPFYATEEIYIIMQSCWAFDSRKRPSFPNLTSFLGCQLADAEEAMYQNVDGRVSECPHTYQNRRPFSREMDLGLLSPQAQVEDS
T4 sequence (P23443 whole entry): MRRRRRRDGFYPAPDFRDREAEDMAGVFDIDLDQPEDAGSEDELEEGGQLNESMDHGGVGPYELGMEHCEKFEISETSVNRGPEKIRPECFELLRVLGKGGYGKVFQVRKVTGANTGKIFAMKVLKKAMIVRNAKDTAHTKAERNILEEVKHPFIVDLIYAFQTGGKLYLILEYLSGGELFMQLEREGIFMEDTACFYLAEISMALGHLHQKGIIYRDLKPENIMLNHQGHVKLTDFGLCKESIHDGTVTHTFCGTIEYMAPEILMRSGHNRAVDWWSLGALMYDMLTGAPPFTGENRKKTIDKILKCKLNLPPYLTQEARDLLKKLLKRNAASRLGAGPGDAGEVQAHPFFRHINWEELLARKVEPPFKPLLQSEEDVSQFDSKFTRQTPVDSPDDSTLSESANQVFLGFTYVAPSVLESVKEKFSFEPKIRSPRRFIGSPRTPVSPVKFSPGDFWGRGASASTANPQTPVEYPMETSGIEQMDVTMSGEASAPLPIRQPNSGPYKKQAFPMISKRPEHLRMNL
T3 sequence (O60674 whole entry): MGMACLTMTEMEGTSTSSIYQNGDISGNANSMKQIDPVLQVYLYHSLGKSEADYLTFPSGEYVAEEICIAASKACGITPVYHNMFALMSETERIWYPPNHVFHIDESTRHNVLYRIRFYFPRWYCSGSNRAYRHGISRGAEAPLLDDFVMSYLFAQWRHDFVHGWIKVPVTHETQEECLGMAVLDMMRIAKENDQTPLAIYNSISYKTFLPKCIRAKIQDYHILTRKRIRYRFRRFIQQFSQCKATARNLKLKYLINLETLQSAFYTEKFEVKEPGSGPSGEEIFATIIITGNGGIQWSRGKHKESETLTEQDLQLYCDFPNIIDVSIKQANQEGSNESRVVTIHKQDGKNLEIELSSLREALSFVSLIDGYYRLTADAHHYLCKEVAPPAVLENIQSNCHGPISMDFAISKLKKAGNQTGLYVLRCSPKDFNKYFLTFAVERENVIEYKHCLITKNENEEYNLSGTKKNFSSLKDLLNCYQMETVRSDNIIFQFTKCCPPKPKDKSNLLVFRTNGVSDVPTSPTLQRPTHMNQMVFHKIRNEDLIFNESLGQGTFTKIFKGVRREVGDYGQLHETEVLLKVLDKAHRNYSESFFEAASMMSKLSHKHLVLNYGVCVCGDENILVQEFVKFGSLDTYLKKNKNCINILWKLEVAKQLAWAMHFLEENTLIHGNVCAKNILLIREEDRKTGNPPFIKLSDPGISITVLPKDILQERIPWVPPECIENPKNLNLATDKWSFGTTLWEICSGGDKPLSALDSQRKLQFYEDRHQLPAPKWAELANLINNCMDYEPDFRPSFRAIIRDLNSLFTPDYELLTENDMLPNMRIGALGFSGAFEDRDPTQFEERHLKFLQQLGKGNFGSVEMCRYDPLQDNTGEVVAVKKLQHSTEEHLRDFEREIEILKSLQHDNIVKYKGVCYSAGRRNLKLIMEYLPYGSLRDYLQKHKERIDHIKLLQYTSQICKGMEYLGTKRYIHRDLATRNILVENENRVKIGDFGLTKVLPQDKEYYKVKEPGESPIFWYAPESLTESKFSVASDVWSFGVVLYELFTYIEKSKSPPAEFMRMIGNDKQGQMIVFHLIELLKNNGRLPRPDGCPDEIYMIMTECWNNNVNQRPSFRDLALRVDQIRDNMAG
T2 sequence (P49841 whole entry): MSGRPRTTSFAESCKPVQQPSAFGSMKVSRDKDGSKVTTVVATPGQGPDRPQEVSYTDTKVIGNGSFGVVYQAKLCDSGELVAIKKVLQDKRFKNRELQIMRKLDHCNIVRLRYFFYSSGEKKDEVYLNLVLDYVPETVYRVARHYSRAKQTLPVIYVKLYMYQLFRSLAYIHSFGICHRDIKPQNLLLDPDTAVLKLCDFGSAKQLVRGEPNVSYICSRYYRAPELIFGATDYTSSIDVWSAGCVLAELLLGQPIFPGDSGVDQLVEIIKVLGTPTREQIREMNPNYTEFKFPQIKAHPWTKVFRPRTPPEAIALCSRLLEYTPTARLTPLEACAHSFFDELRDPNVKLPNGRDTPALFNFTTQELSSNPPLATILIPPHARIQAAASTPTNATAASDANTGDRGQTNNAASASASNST

| SMILES | IC50 [1] [nM] | EC50 [2] [nM] | IC50 [3] [nM] | EC50 [4] [nM] | EC50 [5] [nM] | IC50 [6] [nM] | IC50 [7] [nM] | IC50 [8] [nM] | IC50 [9] [nM] | IC50 [10] [nM] | IC50 [11] [nM] | IC50 [12] [nM] | IC50 [13] [nM] | IC50 [14] [nM] | IC50 [15] [nM] | IC50 [16] [nM] | EC50 [17] [nM] | IC50 [18] [nM] |
| --- | --- | --- | --- | --- | --- | --- | --- | --- | --- | --- | --- | --- | --- | --- | --- | --- | --- | --- |
| O=c1[nH]c(=O)n([C@H]2C[C@H](O)[C@@H](CO)O2)cc1F [Floxuridine] | 1 | > 10000 | 1 | > 10000 | > 10000 | 21.6 | > 20000 | > 20000 | > 20000 | > 20000 | > 20000 | > 20000 | > 20000 | 1 | > 20000 | 1 | > 10000 | > 20000 |
| Cc1cc(O)c2c3c4c(cc(O)c13)C(C)(C)C(=O)c1c(O)cc(O)c(c1-4)C2=O [Heliomycin] | 70.9 | > 10000 | 75.4 | 1070 | > 10000 | 100 | 3010 | 332 | 82 | 1970 | 6900 | > 20000 | 58 | 57.3 | > 20000 | 77.5 | > 10000 | > 20000 |
| Sc1ncnc2nc[nH]c12 [Mercaptopurine] | 260 | > 10000 | 659 | > 10000 | > 10000 | 915 | 635 | > 20000 | 1300 | > 20000 | > 20000 | > 20000 | 1040 | 1420 | > 20000 | 259 | > 10000 | > 20000 |
| COc1c(C)c2c(c(O)c1C/C=C(\C)CCC(=O)O)C(=O)OC2 [Mycophenolate] | > 20000 | > 10000 | 165 | > 10000 | > 10000 | 1260 | > 20000 | > 20000 | 1 | > 20000 | > 20000 | > 20000 | 2600 | 49.8 | > 20000 | 67.2 | > 10000 | > 20000 |
| Nc1nc2nc[nH]c2c(=S)[nH]1 [Tioguanine] | 108 | > 10000 | 343 | > 10000 | > 10000 | 622 | 49.3 | 4400 | 373 | > 20000 | > 20000 | > 20000 | 402 | 163 | > 20000 | 139 | > 10000 | > 20000 |
